This is an account of results in PMC7672424 (Nucleic Acids Research, 2020).

Data set [1] deals with γH2AX foci in A549 cells. As to the kind of experiment: Immunofluorescence of γH2AX and TRF2 foci. It counts as cell-based, human. As to conditions: A549, 1.5 μM, 24 h. As for the experimental part: The cells (5 × 10^4 cells) were seeded on 35-mm glass-bottomed dishes and grown for 24 h for attachment. Then old medium was replaced by fresh DMEM containing 1.5 μM BMPQ-1 and incubated for 24 h. After washed three times with PBS buffer, the cells were fixed in 4% paraformaldehyde/PBS for 15 min and then permeabilized with 0.3% Triton-X 100/PBS at 37°C for 20 min. Then the cells were blocked with 5% BSA/PBS at 37°C for 1 h. Finally, the cells were incubated with primary antibodies at 37°C for 3 h. After that, the cells were washed six times with blocking buffer, and were then incubated with secondary antibodies at 37°C for 3 h. Finally, the cells were washed six times with PBS buffer again. The digital images were recorded using a confocal laser scanning microscopy (Olympus FV1000) and analyzed with ImageJ software. One hundred nuclei were counted in each group. […]
Figure 2. […] (B) Quantification of the number of γH2AX foci per nucleus in A549 cells treated with or without BMPQ-1. (C) Quantification of the colocalization of γH2AX and TRF2 per nucleus in A549 cells treated with or without BMPQ-1. […] (E) Quantification of the number of BG4 foci per nucleus in A549 cells treated with or without BMPQ-1. (F) Quantification of the colocalized BG4 and TRF2 per nucleus in A549 cells treated with or without BMPQ-1.

Data set [2] relates to FAM-TTA45-Cy5 (DNA, G4) GGGTTAGGGTTAGGGTTAGGGTTAGGGTTAGGGTTAGGGTTAGGG
As to the kind of experiment: smFRET population titration. As to conditions: 100 mM K+; 10 mM Tris-HCl pH 7.4, 0.01% Tween 20, 1 mM ascorbic acid, 1 mM methylviologen, room temperature; apparent.

In data set [3] the test system is c-MYC Pu22 (DNA, G4) TGAGGGTGGGTAGGGTGGGTAA
As to the kind of experiment: ligand fluorescence enhancement. As to conditions: 100 mM K+ (KCl) plus potassium phosphate; 10 mM K2HPO4/KH2PO4 pH 7.0; 3 µM compound, 4 µM DNA; enhancement below 3-fold.

Data set [4] concerns TTA45 (DNA, G4) GGGTTAGGGTTAGGGTTAGGGTTAGGGTTAGGGTTAGGGTTAGGG
Description: CD melting. As to conditions: 50 mM K+; 10 mM Tris-HCl pH 7.4; 5 µM DNA, 20 µM compound.

Data set [5] relates to A549 cells. Description: Annexin V-FITC/PI apoptosis detection. The format is cell-based, human. To be noted: A549, 3 μM, 24 h. The procedure: The A549 cells treated with BMPQ-1 or DMSO were washed twice with PBS and detected using the annexin V-FITC/PI apoptosis detection kit (DOJINDO, Japan). The cells were pelleted and resuspended in the binding buffer. Annexin V-FITC and PI were added, and the cells were disturbed by gently vortexing the samples prior to incubation for 5 min in the dark. Emitted florescence was quantitated by flow cytometry (BD FacsAria, USA). For each analysis, 2.0 × 10^4 events were collected.
Figure S10. BMPQ-1 induced cell apoptosis of A549. (A) Apoptosis evaluation of A549 cells after 24 h treatment with various concentrations of BMPQ-1. The cells were collected and stained with Annexin V–FITC and PI. Region LL represents the viable cells; LR represents the early apoptotic cells; UR represents the late apoptotic cells; UL represents damaged cells and cell debris.
(B) Percentage of apoptosis in A549 cells. […]

Data set [6] concerns TTA (DNA, G4) GGGTTAGGGTTAGGGTTAGGG
Description: CD melting. As to conditions: 50 mM K+; 10 mM Tris-HCl pH 7.4; 5 µM DNA, 20 µM compound.

Data set [7] has as its system HT29 xenograft. As to the kind of experiment: HT29 xenograft mouse model. It counts as in vivo. As for the experimental part:
Male BALB/C-nu/nu mice (4 weeks old) were purchased from the Beijing Vital River Laboratory Animal Technology Co., Ltd. and housed at Experimental Animal Center of Huazhong Agriculture University (Wuhan, China) and maintained in pathogen-free conditions (12 h light–dark cycle at 24 ± 1°C with 60−70% humidity and provided with food and water ad libitum). HT29 cells were harvested during log-phase growth and were resuspended in FBS-free DMEM medium to the density of 4 × 10^6 cells per 100 μl. 100 μl cells were injected subcutaneously in the right back of the mice. Tumor growth was examined three times a week after implantation, until the tumor volume reached ∼40 mm^3. The mice were randomly divided into two groups, and each group had five mice. Subcutaneous injection was carried out with BMPQ-1 at a dose of 15 mg/kg for the mice in the experimental group. Mice in the control group were treated with an equivalent volume of normal saline. The volume of the tumor mass was measured with an electronic caliper and calculated as 1/2 × length × width^2 in mm^3. The tumors size and the body weight of the mice were measured every day after drug treatment, and growth curves were plotted using average tumor volume within each experimental group. After treatment for 3 weeks, tumor tissues were collected and tested for the weight and the volume.
We tested BMPQ-1 in a HT29 xenograft mouse model of human colon adenocarcinoma. HT29 tumors were established through the subcutaneous injection of HT29 cells into the right back of BALB/C-nu/nu mice ([57],[58]). The mice were divided into normal saline treated group, and BMPQ-1 (15 mg/kg) treated group, n = 5/group. Subcutaneous injection was given daily. After 3 weeks treatment, the tumors were excised and measured for final size (Figure 3B). The tumor volume in the normal saline group reached 700 mm^3 (Figure 3C). In contrast, in the tumor-bearing mice treated with BMPQ-1, the tumor volume was ∼300 mm^3.

Data set [8] has as its system Tel26 (DNA, G4) AAAGGGTTAGGGTTAGGGTTAGGGAA
Description: CD titration. As to conditions: 100 mM K+; 10 mM Tris-HCl pH 7.4; 265 nm peak decreased.

Setting [9] is: 15 mg/kg subcutaneous daily, 3 weeks.

Regarding `Cc1ccc(Cn2cc3c(-c4ccc5c(c4)OCO5)nnc-3c3cc4c(cc32)OCO4)cc1` [BMPQ-1], the “co-localization between γH2AX foci and TRF2” value in data set [1] was “increase on the co-localization between γH2AX foci and TRF2 was observed with statistical significance”. Also, the “average number of γH2AX foci in individual cells” value in data set [1] (compared with control) is “trebled”. In data set [2], the KD was determined as 0.527 ± 0.0689 µM. Further, the binding entry is “weak” in data set [3] and “yes” in data set [8]. The ΔTm in data set [4] came to 14.6 °C; in data set [6], 8.4 °C. Further, the “population of apoptotic cells” value in data set [5] is reported as “approximately 60%”. Further, the mouse body weight entry in data set [7] (setting [9]) is given as “no significant change”. The tumor weight result in data set [7] (setting [9]) is given as “obvious decrease”. In data set [7] (15 mg/kg subcutaneous daily, 3 weeks, saline group 700 mm^3), this compound registered a tumor volume of around 300 mm^3. The “tumor growth rate in mouse” value in data set [7] (versus control) was “by half”.
